Test results from publication PMC12152147, “DDB1 engagement defines the selectivity of S656 analogs for cyclin K degradation over CDK inhibition” (EMBO Reports, 2025).
“And” between values parts separate entries of the source, which are not always exact repeats. Identical values can stand only once. Like-named read-outs stand apart in the source and are kept apart here. Each block holds one molecule with its values, some of them ahead of it.

Columns and labels:
[1] = tested on: cyclin K, CDK12, RNA polymerase II phospho-ser2, MYC, MCL-1 protein levels; assay: Immunoblot analysis of protein levels; assay type: cell-based, H. sapiens; settings: for RNA polymerase II phospho-ser2 level (immunoblot): OCI-AML5, 5 μM for 5 h
Protocol: Total proteins were extracted using RIPA buffer (20 mM Tris-HCl pH 7.4, 150 mM NaCl, 5 mM MgCl2, 5 mM EGTA, 60 mM β-glycerophosphate, 0.1% NP40, 0.1% Triton X-114, 1 mM DTT) supplemented with protease inhibitors (cOmplete, EDTA-free protease inhibitor tablets), and quantified by the bicinchoninic acid (BCA) method using a BSA standard curve. Proteins were resolved by SDS-PAGE, transferred onto PVDF membrane, blocked with 5% milk and probed with primary (overnight, 4 °C) and secondary (1 h, room temperature) antibodies.

OCI-AML5 cells proteome = assay: Whole-proteome mass spectrometry analysis; assay type: cell-based, H. sapiens; settings: OCI-AML5, 5 hours, 8 μM S656
Protocol: Whole proteome was performed as previously described (Moison et al, [2024]). We treated 10 million OCI-AML5 cells in triplicate with DMSO or 8 μM S656 for 5 h. Collected cells were washed in PBS and cell pellets lysed in Triton X-100 buffer (10 mM PIPES pH 7.4, 0.5% Triton X-100, 300 mM Sucrose, 100 mM NaCl, 3 mM MgCl2, 0.5 mM EDTA + protease inhibitors). Following MS analysis, the data were processed using PEAKS X Pro (Bioinformatics Solutions, Waterloo, ON) and a Uniprot human database (20366 entries) with trypsin as the enzyme. Differential Enrichment analysis of Proteomics data (DEP) package (Zhang et al, [2018]) in R was used to analyze the data (excluding proteins identified based on a single peptide), including data filtering, normalization, imputation of missing values and statistical testing of differentially expressed proteins.

CDK12-DDB1 interaction = target: T1, CDK12-DDB1 interaction (Homo sapiens, UniProt Q16531+Q9NYV4); assay: NanoLuc Binary Technology CDK12-DDB1 interaction in HEK293 cells; assay type: cell-based, H. sapiens; settings: HEK293, monitored over 1 h
T1 construct: The kinase domain of CDK12 was fused to the Large BiT (LgBiT); expressed in transfected cells; host or cells: HEK293
Source text: Using the NanoBiT PPI MCS starter system vectors, we generated fusion proteins of CDK12 and DDB1 to monitor their interaction in living cells through a structural complementation reporter system for the NanoLuc. The kinase domain of CDK12 was fused to the Large BiT (LgBiT) while DDB1 was fused to the Small Bit (SmBiT), both in N-terminal. The primers used to clone CDK12 and DDB1 in NanoBit vectors by Gibson assembly are as follows: N-LgBiT-CDK12KD-F: […]; N-LgBiT-CDK12KD-STOP-R: […]; N-SmBiT-DDB1-F: […]; N-SmBiT-DDB1-GA-R: […].
Both CDK12-LgBiT and DDB1-SmBiT generated plasmids were then transfected in HEK293 cells using JetPrime transfection reagent according to the manufacturer’s instructions and plated 24 h later in white 384-well plate (20,000 cells /well). After 4 h, 5× D-blue substrate was added to each well, incubated for 5 min at obscurity, prior to addition of compounds of interest at increasing concentrations. Luminescence was monitored for 1 h using the Neo Synergy BioTek plate reader.

OCI-AML5 cells = assay: Cell death by Annexin V/PI staining; assay type: cell-based, H. sapiens; settings: 24 h
[2] = tested on: OCI-AML5 Cas9 cells (sgDDB1, sgAAVS1); assay: Dose response in inducible OCI-AML5 Cas9 cells expressing sgRNAs targeting DDB1 or AAVS1; assay type: cell-based, H. sapiens; settings: 4 days, read-out: S656 IC50
Protocol: Dose-response assays in primary AML specimens were performed as in chemical screen (see above) with the exception that compounds were tested in serial dilution (8 dilutions, 1:4, 10 μM down to 0.5 nM). Dose-response assays in OCI-AML5 cell line were conducted similarly with the following modifications: 300 cells per well were seeded in 50 μL of cell line media and cell viability was evaluated after 4 days in culture.
Clonal OCI-AML5 cells expressing an inducible Cas9 (Addgene plasmid #50661 (Wang et al, [2014])) were generated and then infected with lentiviruses for constitutive expression of sgRNAs targeting AAVS1 control region (Addgene plasmid #50662 (Wang et al, [2014])) or DDB1 #1 ([…]); #2 ([…]). Cas9 expression is induced by doxycycline (2 μg/mL) and experiments performed subsequently.

[3] = tested on: OCI-AML5 and U937 cell lines; assay: Synergistic interaction assay with THZ531 (Bliss score); assay type: cell-based
Source text: 3. It may be worthwhile to investigate whether the CDK12/13 inhibitor THZ531 could synergize with S656 or analogues like UOM-005636 that specifically degrade Cyclin K, in combination cytotoxicity assays, assessing selective suppression of AML viability over normal cells. Both […]
inhibiting CDK12, and S656 / UOM-005636 by degrading Cyclin K. Similar synergistic effects were observed by Katharina et al., where THZ531 promoted prostate ca ncer cell sensitivity to androgen deprivation therapy [Frei, K et. al. Inhibition of the Cyclin K-CDK12 complex induces DNA damage and increases the effect of androgen deprivation therapy in prostate cancer. Int J […]
Indeed, THZ531 is a covalent CDK12/13 inhibitor that specifically binds to the kinase pocket of […]
pocket of CDK12, and that pre-incubation with THZ531 competes with S656-mediated Cyclin K degradation (see Figure 5E).
We performed a synergistic interaction assay between THZ531 and S656 or UOM-005636 in OCI-AML5 and U937 cell lines (see below). […]
interactions between THZ531 and our cyclin K degrader molecules. This is likely due to both drugs competing for the same binding site, rather than acting through complementary pathways. […]

[4] = OCI-AML5, increasing concentrations, 6 h

T1 sequence (Q9NYV4 727-1020 limits assumed): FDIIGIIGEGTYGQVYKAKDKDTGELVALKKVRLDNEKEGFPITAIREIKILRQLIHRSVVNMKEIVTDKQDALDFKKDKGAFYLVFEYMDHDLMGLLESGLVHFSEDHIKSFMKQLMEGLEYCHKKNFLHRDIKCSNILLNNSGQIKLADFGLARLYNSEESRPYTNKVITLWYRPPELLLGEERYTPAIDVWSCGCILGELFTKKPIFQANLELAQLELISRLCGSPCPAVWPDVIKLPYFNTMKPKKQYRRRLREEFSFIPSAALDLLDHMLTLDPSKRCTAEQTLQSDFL
T1 sequence (Q16531 whole entry, the tested form may be a part): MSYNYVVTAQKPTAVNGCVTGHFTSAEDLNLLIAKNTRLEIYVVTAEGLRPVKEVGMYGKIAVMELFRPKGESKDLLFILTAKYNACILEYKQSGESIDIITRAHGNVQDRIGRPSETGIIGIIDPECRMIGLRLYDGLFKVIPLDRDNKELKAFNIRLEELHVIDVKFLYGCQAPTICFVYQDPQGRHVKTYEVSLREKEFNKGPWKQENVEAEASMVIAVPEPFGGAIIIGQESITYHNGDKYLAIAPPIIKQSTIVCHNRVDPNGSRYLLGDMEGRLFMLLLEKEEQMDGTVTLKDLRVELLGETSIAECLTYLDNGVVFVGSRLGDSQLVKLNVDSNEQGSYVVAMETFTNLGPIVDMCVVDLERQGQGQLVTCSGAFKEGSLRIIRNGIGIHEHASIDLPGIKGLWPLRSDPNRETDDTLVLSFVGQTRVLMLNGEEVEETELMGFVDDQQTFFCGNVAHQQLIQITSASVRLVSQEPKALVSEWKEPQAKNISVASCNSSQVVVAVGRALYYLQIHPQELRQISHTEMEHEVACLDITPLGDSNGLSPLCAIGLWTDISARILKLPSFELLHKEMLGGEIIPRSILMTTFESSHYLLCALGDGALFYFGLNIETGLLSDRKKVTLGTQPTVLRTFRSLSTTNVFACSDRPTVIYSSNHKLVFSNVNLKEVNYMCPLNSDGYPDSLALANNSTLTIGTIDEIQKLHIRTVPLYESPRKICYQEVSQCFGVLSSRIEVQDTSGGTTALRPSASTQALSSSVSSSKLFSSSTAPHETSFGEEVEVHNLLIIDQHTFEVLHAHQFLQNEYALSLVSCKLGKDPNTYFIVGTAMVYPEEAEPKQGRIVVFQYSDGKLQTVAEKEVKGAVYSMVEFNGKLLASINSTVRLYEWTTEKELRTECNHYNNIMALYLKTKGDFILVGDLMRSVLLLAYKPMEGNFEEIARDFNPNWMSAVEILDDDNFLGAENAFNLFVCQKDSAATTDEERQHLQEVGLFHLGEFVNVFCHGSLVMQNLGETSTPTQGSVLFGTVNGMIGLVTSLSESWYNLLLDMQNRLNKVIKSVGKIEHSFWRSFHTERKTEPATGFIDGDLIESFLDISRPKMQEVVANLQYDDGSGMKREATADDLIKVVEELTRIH
T1 sequence (O75909 whole entry partner, the tested form may be a part): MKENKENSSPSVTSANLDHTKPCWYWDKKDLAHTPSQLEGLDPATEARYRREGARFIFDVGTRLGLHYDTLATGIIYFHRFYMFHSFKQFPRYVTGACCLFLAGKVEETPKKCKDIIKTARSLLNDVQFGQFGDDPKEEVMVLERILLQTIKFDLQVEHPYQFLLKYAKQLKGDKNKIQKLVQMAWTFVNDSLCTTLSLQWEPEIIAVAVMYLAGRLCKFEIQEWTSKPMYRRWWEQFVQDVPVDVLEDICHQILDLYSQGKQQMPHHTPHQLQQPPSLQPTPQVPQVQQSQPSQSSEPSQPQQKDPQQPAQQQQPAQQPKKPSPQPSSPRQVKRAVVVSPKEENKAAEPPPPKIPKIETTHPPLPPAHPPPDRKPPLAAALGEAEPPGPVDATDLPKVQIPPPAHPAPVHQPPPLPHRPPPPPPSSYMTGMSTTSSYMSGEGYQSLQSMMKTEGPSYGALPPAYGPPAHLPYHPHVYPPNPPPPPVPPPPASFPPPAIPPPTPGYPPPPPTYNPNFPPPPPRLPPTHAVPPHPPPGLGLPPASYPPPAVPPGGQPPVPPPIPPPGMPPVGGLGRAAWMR

- cyclin K protein level (immunoblot) [1, 4]: dose-dependent cyclin K depletion
SMILES: Cc1cccc(Nc2nc(CC(=O)Nc3ncc(C)s3)cs2)n1 [HQ461]
- RNA polymerase II phospho-ser2 level (immunoblot) [1]: reduced levels of RNA polymerase II phospho-ser2

- IC50 ([2]; Homo sapiens, OCI-AML-5, 96 h, sgAAVS + DOX): 0.923 µM
- IC50 ([2]; Homo sapiens, OCI-AML-5, 96 h, sgAAVS - DOX): 0.896 µM
- IC50 ([2]; Homo sapiens, OCI-AML-5, 96 h, sgDDB1 #1 + DOX): 2.17 µM
- IC50 ([2]; Homo sapiens, OCI-AML-5, 96 h, sgDDB1 #1 - DOX): 1.19 µM
- IC50 ([2]; Homo sapiens, OCI-AML-5, 96 h, sgDDB1 #2 + DOX): 2.44 µM
- IC50 ([2]; Homo sapiens, OCI-AML-5, 96 h, sgDDB1 #2 - DOX): 0.936 µM
- IC50 ([2]; sgAAVS + DOX): 1.13 µM and 0.96 µM
- IC50 ([2]; sgAAVS - DOX): 0.945 µM and 0.735 µM
- IC50 ([2]; sgDDB1 #1 + DOX): 2.09 µM and 1.91 µM
- IC50 ([2]; sgDDB1 #1 - DOX): 1.02 µM and 0.964 µM
- IC50 ([2]; sgDDB1 #2 + DOX): 2.38 µM and 1.63 µM
- IC50 ([2]; sgDDB1 #2 - DOX): 1.07 µM and 0.975 µM
- cyclin K protein level (immunoblot) ([1]; 3 primary AML specimens, 5 μM, 5 hours): strong depletion of cyclin K
- Mcl-1 protein and c-MYC level (immunoblot) ([1]; OCI-AML5, 5 μM for 4 h): substantial depletion
- cyclin K protein level (immunoblot) [1, 4]: dose-dependent cyclin K depletion
SMILES: CN(C)c1ccc(CC(=O)Nc2ncc(SCc3cccnc3)s2)cc1 [S656]
- log2FC CCNK (OCI-AML5 cells proteome): -7.264
- log2FC GNL1 (OCI-AML5 cells proteome): -6.619
- log2FC PM34 (OCI-AML5 cells proteome): -4.278
- log2FC PMYT1 (OCI-AML5 cells proteome): -4.723
- log2FC RIOK2 (OCI-AML5 cells proteome): -4.751
- CDK12-DDB1 interaction in live cells (NanoLuc luminescence) (CDK12-DDB1 interaction): efficiently induced an interaction between CDK12 and DDB1
- Early Apoptosis (FITC+/PI-) (OCI-AML5 cells; S656 1uM): 5.3% and 6.01% and 3.13%
- Live(FITC-/PI-) (OCI-AML5 cells; S656 1uM): 87.8% and 65.8% and 86.8%
- Necrosis (FITC-/PI+) (OCI-AML5 cells; S656 1uM): 0.1% and 0.36% and 0.49%
- Late Apoptosis (FITC+/PI+) (OCI-AML5 cells; S656 3uM): 39.5% and 53.2% and 33.4%
- Live(FITC-/PI-) (OCI-AML5 cells; S656 3uM): 44.5% and 40.2% and 57.7%
- Necrosis (FITC-/PI+) (OCI-AML5 cells; S656 3uM): 0.2% and 1.08% and 1.83%
- Late Apoptosis (FITC+/PI+) (OCI-AML5 cells; S656 5uM): 56.1% and 61.6% and 54.4%
- Live(FITC-/PI-) (OCI-AML5 cells; S656 5uM): 24.3% and 31% and 39%
- Necrosis (FITC-/PI+) (OCI-AML5 cells; S656 5uM): 0.6% and 3.31% and 1.13%
- synergistic interaction with THZ531 (Bliss score) [3]: moderate to very low synergistic
- RNA polymerase II phospho-ser2 level (immunoblot) [1]: reduced levels of RNA polymerase II phospho-ser2

- CDK12-DDB1 interaction in live cells (NanoLuc luminescence) (CDK12-DDB1 interaction): not detectable
SMILES: CN(C)C/C=C/C(=O)Nc1ccc(C(=O)N2CCC[C@@H](Nc3ncc(Cl)c(-c4c[nH]c5ccccc45)n3)C2)cc1 [THZ531]
